Experimental data published in PubChem BioAssay AID1919000 (Molecular Pharmacology Branch, DTP, NCI, 2023).

Test system: 653999-131-R-J2-PDC complex spheroids, growth % test/control
Experiment: Anticancer human tumor 653999-131-R-J2-PDC patient-derived lung adenocarcinoma cell line growth inhibition [AhR]
Settings: for IC50: curve of first compound; for viability, T/C: stronger effect = lower value; active means viability on the fitted dose curve at most 10% of control; inactive means the rest
From the text: Multicellular complex tumor spheroid response to aryl hydrocarbon receptor antagonists in combination with a variety of drugs and investigational agents in selected tumor cell lines
The current study was undertaken to assess response to aryl hydrocarbon receptor antagonists in combination with standard-of-care drugs and investigational agents in solid tumor complex spheroid models. Complex spheroids include a stromal component modeled by human endothelial cells (HUVEC) and fibroblasts modeled by human mesenchymal stem cells (MSCs). The concentration ranges selected for each drug and investigational agent were based upon clinically achievable concentrations if the clinical Cmax of the agent was known.
Compounds. The drugs and investigational agents: BAY 2416964 (NSC825713), GNF351 (NSC835774), CH-223191 (NSC835775), CPI-455 (NSC825282), aza-TdCyd (NSC777586), decitabine (NSC127716), belinostat (NSC758774), entinostat (NSC756642), pevonedistat (NSC761192), tazemetostat (NSC777109), talazoparib (NSC765396), olaparib (NSC753686), selinexor (NSC780203), nedisertib (M3814, NSC802822), bortezomib (NSC756655), venetoclax (NSC766270), doxorubicin (NSC123127), elimusertib (BAY189344, NSC800525), ceralasertib (AZD6738, NSC777638), TAK-243 (NSC785004), alisertib (NSC759677), etoposide (NSC141540), topotecan (NSC609699), eribulin (NSC707389), gemcitabine (NSC613327), carboplatin (NSC241240), cisplatin (NSC119875), and SN-38 (NSC673596) were obtained from the National Cancer Institute (NCI) Developmental Therapeutics Program Chemical Repository (32). The FDA-approved anticancer drug set is available from the Developmental Therapeutics Program at https://dtp.cancer.gov/organization/dscb/obtaining/available plates.htm. […] The stock solutions were prepared in dimethyl sulfoxide (DMSO, Sigma-Aldrich, St. Louis, MO, cat. D2650), except for the platinum compounds which were prepared in saline (Quality Biological, Gaithersburg, MD, cat. 114-055-101), at 800-fold the tested concentration and stored at -70 degrees C prior to their use. All drugs and investigational agents were tested over a range starting from a high concentration at or near the clinical Cmax and decreasing in half-log increments. If the clinical Cmax for an agent had not been determined, the highest concentration tested was 10 microM (Table 1).
Cell Culture. All cells were maintained in an incubator at 37 degrees C and 5% CO2 with 95% humidity. The PDC lines were cultured according to standard operating procedures established by the NCI PDMR (https://pdmr.cancer.gov). Briefly, all PDCs were thawed and cultured in Matrigel-coated flasks prepared with a working solution of 1X Ham's F-12 nutrient mix, without supplementation (Invitrogen, Waltham, MA, cat. 11765054), 100 U/mL penicillin-streptomycin (Invitrogen, cat. 15140122), and 2.5% Matrigel (Corning Inc., Corning, NY, cat. 354248) for the first three passages. All PDCs were cultured in complete DMEM/F-12 media containing advanced DMEM/F-12 (Invitrogen, cat. 12634028), 4.9% defined fetal bovine serum, heat inactivated (HyClone Laboratories Inc., Logan, UT, cat. SH30070.03HI), 389 ng/mL hydrocortisone (Sigma-Aldrich, cat. H4001), 9.7 ng/mL human EGF recombinant protein (Invitrogen, cat. PHG0313), 23.4 microg/mL adenine (Sigma-Aldrich, cat. A2786), 97.3 U/mL penicillin-streptomycin (Invitrogen, cat. 15140122), 1.9 mM L-glutamine (Invitrogen, cat. 25030081), and 9.7 microM Y-27632 dihydrochloride (Tocris Bioscience, Bristol, United Kingdom, cat. 1254). The PDCs were cultured in complete DMEM/F12 media without 10 microM Y-27632 dihydrochloride for at least two passages prior to the screen. The established cell lines NCI-H1341 and […] were cultured in DMEM/F-12, HEPES (Invitrogen, cat. 11330032), 5% defined fetal bovine serum (HyClone Laboratories Inc., cat. SH30070.03), ITS premix universal culture supplement [insulin (5 microg/mL), transferrin (5 microg/mL), and selenious acid (5 ng/mL)] […]

[1] = second compound 0.1 µM, first compound 0.0316 µM
[2] = second compound 0.1 µM, first compound 0.1 µM
[3] = second compound 0.1 µM, first compound 0.316 µM
[4] = second compound 0.1 µM, first compound 1 µM
[5] = second compound 0.316 µM, first compound 0.0316 µM
[6] = second compound 0.316 µM, first compound 0.1 µM
[7] = second compound 0.316 µM, first compound 0.316 µM
[8] = second compound 0.316 µM, first compound 1 µM
[9] = second compound 1 µM, first compound 0.0316 µM
[10] = second compound 1 µM, first compound 0.1 µM
[11] = second compound 1 µM, first compound 0.316 µM
[12] = second compound 1 µM, first compound 1 µM
[13] = second compound 3.16 µM, first compound 0.0316 µM
[14] = second compound 3.16 µM, first compound 0.1 µM
[15] = second compound 3.16 µM, first compound 0.316 µM
[16] = second compound 3.16 µM, first compound 1 µM
[17] = second compound 10 µM, first compound 0.0316 µM
[18] = second compound 10 µM, first compound 0.1 µM
[19] = second compound 10 µM, first compound 0.316 µM
[20] = second compound 10 µM, first compound 1 µM
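Further: spheroids exposed to agents for seven days.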

CCN(c1cc(-c2ccc(CN3CCOCC3)cc2)cc(C(=O)NCc2c(C)cc(C)[nH]c2=O)c1C)C1CCOCC1 + CC(CO)NC(=O)c1cc(-c2ccc(Cl)cc2)nn(-c2cnn(C)c2)c1=O
inactive: viability, T/C (second compound 0.1 µM, first compound 0.00949 µM) 112% | viability, T/C (second compound 0.1 µM, first compound 0.03 µM) 97.6% | viability, T/C (second compound 0.1 µM, first compound 0.0949 µM) 120% | viability, T/C (second compound 0.1 µM, first compound 0.3 µM) 95.9% | viability, T/C (second compound 0.1 µM, first compound 0.949 µM) 93.9% | viability, T/C (second compound 0.1 µM, first compound 3 µM) 90% | viability, T/C (second compound 0.316 µM, first compound 0.00949 µM) 119% | viability, T/C (second compound 0.316 µM, first compound 0.03 µM) 107% | viability, T/C (second compound 0.316 µM, first compound 0.0949 µM) 101% | viability, T/C (second compound 0.316 µM, first compound 0.3 µM) 94.6% | viability, T/C (second compound 0.316 µM, first compound 0.949 µM) 101% | viability, T/C (second compound 0.316 µM, first compound 3 µM) 94.1% | viability, T/C (second compound 1 µM, first compound 0.00949 µM) 115% | viability, T/C (second compound 1 µM, first compound 0.03 µM) 134% | viability, T/C (second compound 1 µM, first compound 0.0949 µM) 115% | viability, T/C (second compound 1 µM, first compound 0.3 µM) 114% | viability, T/C (second compound 1 µM, first compound 0.949 µM) 105% | viability, T/C (second compound 1 µM, first compound 3 µM) 102% | viability, T/C (second compound 3.16 µM, first compound 0.00949 µM) 112% | viability, T/C (second compound 3.16 µM, first compound 0.03 µM) 113% | viability, T/C (second compound 3.16 µM, first compound 0.0949 µM) 119% | viability, T/C (second compound 3.16 µM, first compound 0.3 µM) 114% | viability, T/C (second compound 3.16 µM, first compound 0.949 µM) 106% | viability, T/C (second compound 3.16 µM, first compound 3 µM) 99.6% | viability, T/C (second compound 10 µM, first compound 0.00949 µM) 111% | viability, T/C (second compound 10 µM, first compound 0.03 µM) 117% | viability, T/C (second compound 10 µM, first compound 0.0949 µM) 130% | viability, T/C (second compound 10 µM, first compound 0.3 µM) 114% | viability, T/C (second compound 10 µM, first compound 0.949 µM) 105% | viability, T/C (second compound 10 µM, first compound 3 µM) 96.1%
> 3000 nM: IC50 (second compound 0.1 µM) | IC50 (second compound 0.316 µM) | IC50 (second compound 1 µM) | IC50 (second compound 3.16 µM) | IC50 (second compound 10 µM)

CC1COCCN1c1cc(-c2ccnn2C)c2ccnc(-c3ccn[nH]3)c2n1 (centres undefined) + CC(CO)NC(=O)c1cc(-c2ccc(Cl)cc2)nn(-c2cnn(C)c2)c1=O
168 nM: IC50 (second compound 1 µM)
134 nM: IC50 (second compound 0.316 µM)
53.6 nM: IC50 (second compound 10 µM)
162 nM: IC50 (second compound 0.1 µM)
100 nM: IC50 (second compound 3.16 µM)
inactive: viability, T/C (second compound 0.1 µM, first compound 0.00316 µM) 102% | viability, T/C (second compound 0.1 µM, first compound 0.01 µM) 101% | viability, T/C [1] 94% | viability, T/C [2] 60.2% | viability, T/C [3] 36.4% | viability, T/C [4] 28.4% | viability, T/C (second compound 0.316 µM, first compound 0.00316 µM) 103% | viability, T/C (second compound 0.316 µM, first compound 0.01 µM) 103% | viability, T/C [5] 76.1% | viability, T/C [6] 56.5% | viability, T/C [7] 36.3% | viability, T/C [8] 27.9% | viability, T/C (second compound 1 µM, first compound 0.00316 µM) 97.3% | viability, T/C (second compound 1 µM, first compound 0.01 µM) 105% | viability, T/C [9] 80.6% | viability, T/C [10] 60.1% | viability, T/C [11] 39.5% | viability, T/C [12] 30.4% | viability, T/C (second compound 3.16 µM, first compound 0.00316 µM) 94% | viability, T/C (second compound 3.16 µM, first compound 0.01 µM) 97.7% | viability, T/C [13] 89.9% | viability, T/C [14] 49.9% | viability, T/C [15] 35.6% | viability, T/C [16] 32.9% | viability, T/C (second compound 10 µM, first compound 0.00316 µM) 92.3% | viability, T/C (second compound 10 µM, first compound 0.01 µM) 86.4% | viability, T/C [17] 57% | viability, T/C [18] 41.5% | viability, T/C [19] 30.7% | viability, T/C [20] 29.2%

Cc1cncc(-c2nc(NCCc3c[nH]c4ccccc34)c3ncn(C(C)C)c3n2)c1
inactive: viability, T/C (compound 0.1 µM) 92.6% [middle of 20 runs] | viability, T/C (compound 0.316 µM) 97% [middle of 20 runs] | viability, T/C (compound 1 µM) 101% [middle of 20 runs] | viability, T/C (compound 10 µM) 52% [middle of 20 runs]

COc1cc(C2c3cc4c(cc3C(OC3OC5COC(C)OC5C(O)C3O)C3COC(=O)C23)OCO4)cc(OC)c1O (centres undefined) + CC(CO)NC(=O)c1cc(-c2ccc(Cl)cc2)nn(-c2cnn(C)c2)c1=O
823 nM: IC50 (second compound 3.16 µM)
1270 nM: IC50 (second compound 0.1 µM)
944 nM: IC50 (second compound 1 µM)
846 nM: IC50 (second compound 10 µM)
894 nM: IC50 (second compound 0.316 µM)
inactive: viability, T/C [1] 87.5% | viability, T/C [2] 79.2% | viability, T/C [3] 73.9% | viability, T/C [4] 51.9% | viability, T/C (second compound 0.1 µM, first compound 3.16 µM) 37.8% | viability, T/C (second compound 0.1 µM, first compound 10 µM) 28.9% | viability, T/C [5] 82.3% | viability, T/C [6] 85.8% | viability, T/C [7] 63.5% | viability, T/C [8] 48.4% | viability, T/C (second compound 0.316 µM, first compound 3.16 µM) 36.5% | viability, T/C (second compound 0.316 µM, first compound 10 µM) 26.6% | viability, T/C [9] 86.5% | viability, T/C [10] 80.2% | viability, T/C [11] 77.2% | viability, T/C [12] 48% | viability, T/C (second compound 1 µM, first compound 3.16 µM) 34.7% | viability, T/C (second compound 1 µM, first compound 10 µM) 30.2% | viability, T/C [13] 79.4% | viability, T/C [14] 80.9% | viability, T/C [15] 72.5% | viability, T/C [16] 44.1% | viability, T/C (second compound 3.16 µM, first compound 3.16 µM) 42.8% | viability, T/C (second compound 3.16 µM, first compound 10 µM) 28.8% | viability, T/C [17] 83.2% | viability, T/C [18] 83% | viability, T/C [19] 62.6% | viability, T/C [20] 49.4% | viability, T/C (second compound 10 µM, first compound 3.16 µM) 31.6% | viability, T/C (second compound 10 µM, first compound 10 µM) 25.6%
